Experiments:
Assay type in all cases: cell-based, human
[1] = test system: 451-Lu metastatic melanoma cells; assay: MTT cell viability assay, 451-Lu; conditions: 50 to 400 μM, 72 h; for toxicity / cell growth inhibition: 451-Lu; for IC50: Homo sapiens, 451Lu, MTT, mean ± SD
From the text: (§1) Three malignant melanoma cell lines (Me45, 1205-Lu and 451-Lu; obtained from the collection of the Centre of Oncology, Gliwice, Poland), neonatal human dermal fibroblast (NHDF; Lonza, Basel, Switzerland) and human colorectal adenocarcinoma cells (Caco-2; ATCC, Manassas, VA, USA) were used in the studies. The human malignant melanoma (Me45) cell line (derived from a lymph node metastasis of skin melanoma) was established in 1997 at the Radiobiology Department of the Centre of Oncology in Gliwice. 1205-Lu and 451-Lu cell lines were derived from human melanoma metastases to lungs of immunodeficient mice. The cells were cultivated in the medium DMEM-F12 (PAA, Warsaw, Poland) supplemented with 10% (for Me45, 1205-Lu and 451-Lu and NHDF) or 20% (Caco-2) of fetal bovine serum (FBS, Eurx, Gdansk, Poland). In addition, medium for Caco-2 cells contained Non-essential Amino Acid Solution (1×) (Sigma-Aldrich, Poznan, Poland). All cell lines were grown in the presence of 1% of antibiotics (10,000 μg/mL streptomycin and 10,000 units/mL penicillin; Sigma-Aldrich, Poznan, Poland), at 37 °C in humidified atmosphere with 5% CO2 under standard conditions. All experimental procedures were carried out in log-phase of cell growth. During some experiments melanoma cells were irradiated with X-rays at the dose of 2 Gy at the 24th hour of the incubation. Ionizing radiation was applied using a laboratory X-Cell 140 irradiator (Kubtec, Bridgeport, CT, USA).
(§2) Cells (Me45, 1205-Lu, 451-Lu and NHDF) were seeded on 96-well plates (20,000 cells/mL) 24 h before the experiment. One day later, fresh media containing tested compounds were added. The appropriate control, containing ethanol:DMSO (v/v 1:1) in fresh medium, was also prepared. The plates were incubated for a given time (72 h for Me45, 1205-Lu, 451-Lu and NHDF; 2 h for Caco-2) at 37 °C in humidified atmosphere with 5% CO2. After incubation, the medium was removed and cells were washed with physiological saline (PBS; PAA, Warsaw, Poland). In the next step, the cells were incubated with MTT (3-[4,5-dimethylthiazol-2-yl]-2,5-diphenyltetrazolium bromide, Sigma-Aldrich, Poznan, Poland) (solution of 0.5 mg/mL in RPMI 1640 without phenol red) for 2 h. Then, the MTT solution was removed and the formazan crystals were dissolved in the mixture isopropanol:HCl (v/v 1:0.04; both purchased from Sigma-Aldrich, Poznan, Poland). The absorbance of the obtained product was read at 570 nm using a microplate reader (Epoch; BioTek, Winooski, VT, USA). Survival rate was expressed as the percentage of cell survival and calculated from the ratio (A570 of treated cells/A570 of control cells) × 100%. The experiments were repeated three times.

[2] = test system: 1205-Lu metastatic melanoma cells; assay: MTT cell viability assay, 1205-Lu; conditions: 50 to 400 μM, 72 h; for toxicity / cell growth inhibition: 1205-Lu; for IC50: Homo sapiens, 1205Lu, MTT, mean ± SD
From the text: as §1, §2

[3] = test system: Me45 metastatic melanoma cells; assay: MTT cell viability assay, Me45; conditions: 72 h; for toxicity / cell growth inhibition: Me45, 50 to 400 μM; for IC50: Homo sapiens, MTT, 50 to 400 μM, mean ± SD
From the text: as §1, §2

[4] = test system: normal skin fibroblasts NHDF; assay: MTT cell viability assay, NHDF; conditions: 50 to 400 μM, 72 h; for IC50: Homo sapiens, MTT, mean ± SD
From the text: as §1, §2

[5] = test system: 451-Lu cells; assay: Annexin-V/PI apoptosis assay, 451-Lu; conditions: 100 µM, 72 h
Method: (§3) The studies of cell cycle, apoptosis and intracellular level of ROS were performed using the flow cytometry method. For the apoptosis assay, the cells were harvested and centrifuged (1500 rpm, 3 min). The apoptosis was measured using an Annexin-V apoptosis assay (BioLegend, San Diego, CA, USA). After supernatant removal, the cells were washed with PBS and centrifuged again. The pellets of cells were suspended in 50 μL of cold Annexin-V binding buffer and stained with FITC-labeled Annexin-V for 30 min at 37 °C in the dark. The Annexin-V binding buffer and propidium iodide (PI) solution (100 μg/mL; Sigma-Aldrich, Poznan, Poland) were then added and the samples were stored on ice till they were measured.
(§4) Cytometric analyses were performed immediately using an Aria III flow cytometer (Becton Dickinson, Franklin Lakes, NJ, USA) with FITC configuration (488 nm excitation; emission, LP mirror 503, BP filter 530/30) or with PE configuration (547 nm excitation; emission, 585 nm) and at least 10,000 cells were counted.

[6] = test system: 1205-Lu cells; assay: Annexin-V/PI apoptosis assay, 1205-Lu; conditions: 100 µM
Method: as §3, §4

[7] = test system: Me45 cells; assay: Annexin-V/PI apoptosis assay, Me45; conditions: Me45, 100 µM, 72 h
Method: as §3, §4

[8] = test system: 451-Lu melanoma cells; assay: Intracellular ROS formation (DCFH-DA, flow cytometry), 451-Lu; conditions: 72 h, DCF fluorescence
Method: (§5) The experiments on ROS content were performed after 72 h of incubation with the given compounds. The cells were harvested and centrifuged (1500 rpm, 3 min), washed with PBS and centrifuged again. The pellet was resuspended in culture medium and a cell-permeable non-fluorescent probe 2′,7′-dichlorofluorescin diacetate (DCFH-DA, Sigma-Aldrich, Poznan, Poland) at a final concentration of 30 µM was added. The samples were incubated in darkness for 30 min at 37 °C, then stored on ice till they were measured. DCFH-DA is hydrolyzed by cellular esterases into its polar form DCFH. Due to the intracellular ROS and other peroxides, DCFH undergoes oxidation and turns into highly fluorescent compond 2′,7′-dichlorofluorescein (DCF).
as §4

[9] = test system: Me45 melanoma cells; assay: Intracellular ROS formation (DCFH-DA, flow cytometry), Me45; conditions: Me45, 72 h, DCF fluorescence
Method: as §5, §4

[10] = test system: 1205-Lu melanoma cells; assay: Intracellular ROS formation (DCFH-DA, flow cytometry), 1205-Lu; conditions: 72 h, DCF fluorescence
Method: as §5, §4

[11] = test system: 451-Lu cells; assay: Cell cycle analysis (PI, flow cytometry), 451-Lu; conditions: 100 µM, 72 h, vs untreated control
Method: (§6) For cell cycle analysis, harvested cells were centrifuged (1500 rpm, 3 min). After supernatant removal, cells were fixed with a hypotonic buffer, containing PI at 100 µg/mL in PBS, 5 mg/l of citric acid, 1:9 Triton-X solution, 100 µg/mL of RNase in PBS (Sigma-Aldrich, Poznan, Poland). Probes were incubated for 20 min at room temperature in the dark, then stored on ice till they were measured.
as §4

[12] = test system: Me45 cells; assay: Cell cycle analysis (PI, flow cytometry), Me45; conditions: Me45, 100 µM, 72 h, vs untreated control
Method: as §6, §4

[13] = test system: 1205-Lu cells; assay: Pro-apoptotic activity in combination with ionizing radiation (2 Gy), 1205-Lu; conditions: 100 µM, 48 h, X-rays 2 Gy at the 24th hour
Method: In the next step, pilot experiments on the pro-apoptotic activity of phenolic acid-PC conjugates in combination with ionizing radiation (IR) were performed. […] The time of incubation with a given compound was reduced to 48 h. X-rays at the dose of 2 Gy were applied at the 24th hour of incubation.
Three malignant melanoma cell lines (Me45, 1205-Lu and 451-Lu; obtained from the collection of the Centre of Oncology, Gliwice, Poland), neonatal human dermal fibroblast (NHDF; Lonza, Basel, Switzerland) and human colorectal adenocarcinoma cells (Caco-2; ATCC, Manassas, VA, USA) were used in the studies. […]
The studies of cell cycle, apoptosis and intracellular level of ROS were performed using the flow cytometry method. […] The apoptosis was measured using an Annexin-V apoptosis assay (BioLegend, San Diego, CA, USA). […] The Annexin-V binding buffer and propidium iodide (PI) solution (100 μg/mL; Sigma-Aldrich, Poznan, Poland) were then added and the samples were stored on ice till they were measured.
as §4

Compound	IC50 [1] [µM]	IC50 [2] [µM]	IC50 [3] [µM]	toxicity / cell growth inhibition [1]	toxicity / cell growth inhibition [2]	toxicity / cell growth inhibition [3]	toxicity / cell growth inhibition [4]	induction of apoptosis [5]	induction of apoptosis ([6]; 72 h)	induction of apoptosis [7]	IC50 [4] [µM]	reactive oxygen species formation (antioxidant activity, words) [8]	reactive oxygen species formation (antioxidant activity, words) [9]	reactive oxygen species formation (antioxidant activity, words) [10]	cell cycle phase distribution [11]	fraction of necrotic cells [5]	fraction of cells in the early stage of apoptosis ([6]; 48 h of incubation, without irradiation)	fraction of necrotic cells ([6]; 72 h)	cell cycle phase distribution [12]	pro-apoptotic effect in combination with ionizing radiation [13]
COc1ccc(C(=O)O)cc1 [1a, 4-methoxybenzoic acid, reference compound]				non-toxic	non-toxic	non-toxic	non-toxic	no ability to induce apoptosis	no ability to induce apoptosis	no ability to induce apoptosis										
COc1ccc(C(=O)O)cc1OC [1b, 3,4-dimethoxybenzoic acid, reference compound]				non-toxic	non-toxic	non-toxic	non-toxic	no ability to induce apoptosis	no ability to induce apoptosis	no ability to induce apoptosis										
COc1ccc(C(=O)OC[C@H](COP(=O)([O-])OCC[N+](C)(C)C)OC(=O)c2ccc(OC)cc2)cc1 [3a, 1,2-dianisoyl-sn-glycero-3-phosphocholine]	47.5 ± 2.7	82 ± 10.5	111 ± 4.5					significant potency to induce apoptosis	significant potency to induce apoptosis	significant potency to induce apoptosis	238 ± 17.8	strongest antioxidant	strongest antioxidant	strongest antioxidant	increased the fraction of melanoma cells in the sub-G1 phase	significant increase in the fraction of necrotic cells	~ 17%	significant increase in the fraction of necrotic cells		
CCCCCCCCCCCCCCCC(=O)OC[C@H](COP(=O)([O-])OCC[N+](C)(C)C)OC(=O)c1ccc(OC)cc1 [5a, 1-palmitoyl-2-anisoyl-sn-glycero-3-phosphocholine]	97.7 ± 8	71.3 ± 7.7	122 ± 10					slightly increased		slightly increased	249 ± 20.9									

The remaining molecules from weak to strong by IC50 [1], led by results:

IC50 [1] [µM]	IC50 [2] [µM]	IC50 [3] [µM]	Compound	toxicity / cell growth inhibition [1]	toxicity / cell growth inhibition [2]	toxicity / cell growth inhibition [3]	toxicity / cell growth inhibition [4]	induction of apoptosis [5]	induction of apoptosis ([6]; 72 h)	induction of apoptosis [7]	IC50 [4] [µM]	reactive oxygen species formation (antioxidant activity, words) [8]	reactive oxygen species formation (antioxidant activity, words) [9]	reactive oxygen species formation (antioxidant activity, words) [10]	cell cycle phase distribution [11]	fraction of necrotic cells [5]	fraction of cells in the early stage of apoptosis ([6]; 48 h of incubation, without irradiation)	fraction of necrotic cells ([6]; 72 h)	cell cycle phase distribution [12]	pro-apoptotic effect in combination with ionizing radiation [13]
137 ± 7.7	102 ± 4.1	109 ± 7.6	CCCCCCCCCCCCCCCC(=O)OC[C@H](COP(=O)([O-])OCC[N+](C)(C)C)OC(=O)c1ccc(OC)c(OC)c1 [5b, 1-palmitoyl-2-veratroyl-sn-glycero-3-phosphocholine]							significantly higher fractions of Me45 cells in the early and late stages of apoptosis	185 ± 13.7				increased the fraction of melanoma cells in the sub-G1 phase				Increased fraction of Me45 cells in G2/M phase	
82.2 ± 14.3	73.2 ± 9.3	126 ± 3.7	CCCCCCCCCCCCCCCC(=O)O[C@H](COC(=O)c1ccc(OC)c(OC)c1)COP(=O)([O-])OCC[N+](C)(C)C [8b, 1-veratroyl-2-palmitoyl-sn-glycero-3-phosphocholine]								150 ± 17.9								Increased fraction of Me45 cells in G2/M phase	most effective combinations
54.1 ± 6.7	62.2 ± 7.1	131 ± 9.9	CCCCCCCCCCCCCCCC(=O)O[C@H](COC(=O)c1ccc(OC)cc1)COP(=O)([O-])OCC[N+](C)(C)C [8a, 1-anisoyl-2-palmitoyl-sn-glycero-3-phosphocholine]								198 ± 20.8									most effective combinations

— publication PMC8395125, “Conjugation with Phospholipids as a Modification Increasing Anticancer Activity of Phenolic Acids in Metastatic Melanoma—In Vitro and In Silico Studies” (International Journal of Molecular Sciences, 2021)
